Tests used:
Type in all cases: in vivo
brain serotonin = assay: Brain serotonin content in wild-type mice (HPLC); settings: WT mice, 250 mg/kg orally
Experimental: FIG. 15. HPLC analysis of serotonin content in the brain of wild-type mice that received vehicle or LP-533,401 (250 mg/kg, orally) for 1 day.
(§1) Blood samples were collected from mice and rats through cardiac puncture under isoflurane anesthesia, kept on ice for 5 min, and centrifuged at 13,000 rpm for 10 min at 4° C. Serum samples were stored at −80° C. until hormonal analyses were performed. Serum serotonin levels were quantified by ELISA (Serotonin kit, Fitzgerald) while serotonin levels in brain regions were quantified by HPLC as described previously (Mann et al., 1992, Arch. Gen. Psychiatry 49:442-446). Serum levels of total deoxypyridinoline (DPD) cross-links was measured using the Merta tDPD kit (Quidel corp. Sandiago, Calif.) and Osteocalcin using Rat and Mouse Ocn IRMA kit.

serum serotonin [1] = assay: Serum serotonin levels in WT mice fed LP-533,401 (dose response)
Experimental: This decrease in serum serotonin levels reached 70% of control values when using 250 mg/kg of the compound while no change in brain serotonin content was observed (FIG. 15). […] Ovariectomized rodents present, as post-menopausal women do (Rodan & Martin, 2000, Science 289:1508-1514), a marked increase in bone resorption not compensated by a similar increase in bone formation.
as §1

ovariectomized rats = assay: Curative regimen in ovariectomized rats (histomorphometry, μCT, biomechanical testing); settings: OVX rats
Experimental: Virgin female Sprague-Dawley rats (National Institute of Nutrition, Hyderabad, India) were obtained at 3 months of age and allowed to acclimate to the facility for 1 week before study initiation and surgical procedures. They were housed under a 12 hour:12 hour light:dark cycle and provided throughout the study with water and PMI (Purina Mills, Incorporated) Certified Rodent Laboratory Chow. Rats were subjected to either bilateral ovariectomy or a sham operation under isoflurane anesthesia. […] The rats were divided into two groups of sham-operated and ovariectomized animals and left untreated for 3 weeks to allow bone loss to occur. One group of sham and one group of ovariectomized rats (n=10/group) were killed as baseline controls to determine bone loss before the start of LP-533,401 or PTH administration. The remaining animals (n=5-10/group) received vehicle or LP-533,401 (250 mg/kg/day) by gavage, or recombinant human PTH (80 ug/kg) by daily subcutaneous (s.c.) injection for 4 weeks. The 80 ug/kg dose of PTH was selected as being optimal for reversal of ovariectomy-induced bone loss in rats based on previous studies, while the dose of LP-533,401 was selected based on the effective dose for bone loss-reversal observed in mice experiments. To label bone-forming surfaces, animals were injected s.c. with calcein (8 mg/kg) at 10 and 3 days before death. Animals were killed by an overdose of Isofluorane anesthesia. The right tibia and lumbar vertebra 2 (L2) were collected, cleaned of excess soft tissue, fixed overnight in 10% formalin and processed for μCT or histomorphometric analysis. The right femur and L3 were cleaned of excess tissue and stored at −20° C. prior to biomechanical testing.
Bone histomorphometry was performed as previously described (Duey et al., 2000, Cell 100:197-207; Takeda et al., 2002, Cell 111:305-317; Parfitt et al., 1987, J. Bone Miner. Res. 2:595-610). Briefly, lumbar vertebrae were dissected, fixed for 24 hr in 10% formalin, dehydrated in graded ethanol series, and embedded in methyl methacrylate resin according to standard protocols (Parfitt et al., 1987, J. Bone Miner. Res. 2:595-610). Von Kossa/Von Gieson staining was performed using 7 μm sections for bone volume over tissue volume (BV/TV) measurement. Bone formation rate (BFR) was analyzed by the calcein double-labeling method (Ducy et al., 2000, Cell 100:197-207). Calcein (Sigma Chemical Co., St. Louis, Mo.) was dissolved in calcein buffer (0.15 M NaCl, 2% NaHCO3) and injected twice at 0.125 mg/g body weight on day 1 and 4, and then mice were killed on day 6. Unstained 4 μm sections were used for bone formation rate (BFR) measurements. For the analysis of parameters of osteoblasts and osteoclasts, 4 μm sections were stained with toluidine blue and tartrate-resistant acid phosphatase (TRAP), respectively (2). Histomorphometric analyses were performed using the Osteomeasure Analysis System (Osteometrics, Atlanta, Ga.).
Trabecular bone architecture of proximal tibia was assessed using a micro computed tomography (μCT) system (VivaCT 40, SCANCO Medical AG, Bassersdorf, Switzerland). Tibia bone specimen was stabilized with gauze in a 2 ml centrifuge tube filled with 70% ethanol and fastened in the specimen holder of the μCT scanner. One hundred μCT slices, corresponding to a 1.05 mm region distal from the growth plate, were acquired at an isotropic spatial resolution of 10.5 μm. A global thresholding technique was applied to binarize gray-scale μCT images where the minimum between the bone and bone marrow peaks in the voxel gray value histogram was chosen as the threshold value. The trabecular bone compartment was segmented by a semi-automatic contouring method and subjected to a model-independent morphological analysis (Hildebrand et al., 1999, J. Bone Miner. Res. 14:1167-1174) by the standard software provided by the manufacture of the μCT scanner. […]

peripheral serotonin = assay: Peripheral serotonin levels in wild-type mice (Example 11); settings: 5 mice per compound
Experimental: Serotonin serum levels were quantified using immunoassay kits from Fitzgerald (Serotonin) and serotonin levels in the different regions of the brain were quantified by HPLC method as described previously (Mann et al., 1992, Arch. Gen. Psychiatry 49:442-446).
The following three compounds were tested for their ability to effect peripheral serotonin levels in wild-type mice:
Also tested as a negative control was vehicle alone. Each compound as well as vehicle was administered to 5 mice and the resulting peripheral serotonin levels were as follows: […]

serum serotonin [2] = assay: Serum serotonin levels in ovariectomized mice; settings: OVX mice
Experimental: Six-week-old wild-type virgin female mice were purchased from the Jackson Laboratories and subjected to either bilateral ovariectomy or a sham operation after a few days of acclimatization to the animal facility post-arrival. Ovariectomy was performed under isofluorane anesthesia through dorsal, subrenal incision. In the first experiment, mice were treated from day 1 post-ovariectomy for 4 weeks with LP-533,401 (1, 10, 100 or 250 mg/kg/day) or vehicle. In the second experiment, mice were treated for 4 weeks from 2 to 6-weeks post-ovariectomy with LP-533,401 (250 mg/kg/day) or vehicle. In the third set of experiments, mice were treated for 6 weeks from 6 to 12-weeks post-ovariectomy with LP-533,401 (250 mg/kg/day) or vehicle. […]
as §1, with “Serum samples were stored at −80° C. until hormonal analyses were performed.” left out

[3] = long bones, μCT, all doses tested
[4] = LP-533,401 250 mg/kg/day, PTH 80 μg/kg/day

SMILES: Nc1nc(OC(c2ccc(-c3cccc(F)c3)cc2)C(F)(F)F)cc(-c2ccc(C[C@H](N)C(=O)O)cc2)n1 (stereo partly drawn) [LP-533401, (2S)-2-amino-3-(4-(2-amino-6-(2,2,2-trifluoro-1-(3′-fluorobiphenyl-4-yl)ethoxy)pyrimidin-4-yl)phenyl)propanoic acid]
- brain serotonin content (brain serotonin): no change
- serum serotonin levels, dose response (serum serotonin [1]; WT mice fed with increasing amounts): dose-dependent decrease
- decrease in serum serotonin levels (serum serotonin [1]; WT mice, 250 mg/kg LP-533,401): 70 % of control values
- number of osteoclasts per bone surface (OcS/BS) versus untreated ovariectomized rats (ovariectomized rats): similar
- ovariectomy-induced bone loss, histomorphometric analysis of vertebra (ovariectomized rats; given 3 or 12 weeks post-ovariectomy for 4 weeks, even at 25 mg/kg/day): fully rescued
- efficiency compared with PTH (80 μg/kg/day, s.c.) (ovariectomized rats; long bones, μCT): as efficient as the PTH regimen
- trabecular spacing (Tb.Sp*) (ovariectomized rats; [3]): reduced
- trabecular thickness (Tb.Th*) (ovariectomized rats; [3]): significantly increased
- trabecular number (Tb.N*) (ovariectomized rats; long bones, μCT, all doses tested (25, 100, 250 mg/kg/day)): significantly increased
- bone formation rate (ovariectomized rats; vertebra): significant increase
- osteoblast number (ovariectomized rats; vertebra): significant increase
- bone mass in long bones versus vehicle-treated controls (ovariectomized rats; μCT): increasing, in a dose-dependent manner
- decrease in cortical thickness at the femur mid-shaft (ovariectomized rats; [4]): equally rescued
- maximal load (femur, vertebra) (ovariectomized rats; [4]): restored to values seen in sham-operated rats
- stiffness (femur, vertebra) (ovariectomized rats; [4]): restored to values seen in sham-operated rats
- Peripheral serotonin (ng/ml) (mean ± SEM) (peripheral serotonin): 88.56 ± 12.93 ng/mL
- decrease of serum serotonin levels (serum serotonin [2]; 250 mg/kg/day for 4 weeks from week 2 post-ovariectomy): 80%
- serum serotonin levels (serum serotonin [2]; day 1 to 28 post-ovariectomy): decreased

Reference: patent US8614222B2, “Methods of preventing and treating low bone mass diseases” (The Trustees of Columbia University in the City of New York, priority 2008, dated 2013)
